# Laboratory results published in US20220218852A1, “NOVEL RADIOLABELLED CXCR4-TARGETING COMPOUNDS FOR DIAGNOSIS AND THERAPY” (PROVINCIAL HEALTH SERVICES AUTHORITY, priority 2019, published 2022).
# Positions of bridges follow the written chain, without caps; N, C: chain ends. Non-standard residues stand in square brackets, D forms with d. Residues, ends and D or L forms follow the SMILES beside them. Groups on a side chain read outwards from the residue. *: point of attachment. DOTA = O=C(O)CN1CCN(CC(=O)O)CCN(CC(=O)*)CCN(CC(=O)O)CC1; 2Nal = N[C@@H](Cc1ccc2ccccc2c1)C(=O)O; Lys(iPr) = CC(C)NCCCC[C@H](N)C(=O)O
# Tested on: GRANTA519 xenograft
# Assay: Dosimetry, Human Extrapolated from Mouse Model, based on GRANTA519 xenograft mice
# Assay type: in vivo
# Settings: Lu-177, GRANTA519 xenograft mice
# Source text: The multi-time-point organ uptake obtained from biodistribution data of ^177Lu-labeled analogs was decayed to their appropriate time-point, fitted to a mono-exponential or bi-exponential model (fit chosen based on R2 and residuals) in Python (version 3.7). The area under the curve was used to compute residence times which were multiplied by model organ mass for human (NURBS model) and mouse (25 g MOBY mouse phantom) for use in OLINDA/EXM software (Hermes Medical Solution; version 2.0) that calculated dosimetry for an average mouse (Stabin et al., J Nucl Med. 2005, 46:1023-1027; Keenan et al., J Nucl Med. 2010, 51:471-476) and extrapolated to an average human male (Segars et al., J Nucl Med. 2001, 42:7; Stabin et al., J Nucl Med. 2012, 53:1807-13).
smiles,measurement,setting,value
"CC(C)NCCCC[C@@H]1NC(=O)[C@H](Cc2ccc(O)cc2)NC(=O)[C@H](Cc2ccccc2)NC(=O)CC[C@H](C(=O)N[C@@H](CCCCNC(C)C)C(=O)N[C@@H](CCCCNC(=O)[C@H](CCC(=O)O)NC(=O)[C@H](CCC(=O)O)NC(=O)[C@H](CCC(=O)O)NC(=O)CN2CCN(CC(=O)O)CCN(CC(=O)O)CCN(CC(=O)O)CC2)C(N)=O)NC(=O)CNC(=O)[C@H](Cc2ccc3ccccc3c2)NC(=O)[C@@H](CCCNC(=N)N)NC1=O [[^177Lu]Lu-BL02, metal not drawn] (FY[Lys(iPr)][dR][2Nal]G[dE][Lys(iPr)]K([Glu-Glu-Glu-DOTA])-NH2; lactam N-7)","Absorbed Dose, Adrenals",Adrenals,0.00757 mGy/MBq
same,"Absorbed Dose, Brain",Brain,7.33e−05 mGy/MBq
same,"Absorbed Dose, Esophagus",Esophagus,0.00043 mGy/MBq
same,"Absorbed Dose, Eyes",Eyes,0.000245 mGy/MBq
same,"Absorbed Dose, Gallbladder Wall",Gallbladder Wall,0.000863 mGy/MBq
same,"Absorbed Dose, Heart",Heart,0.00148 mGy/MBq
same,"Absorbed Dose, Kidneys",Kidneys,0.0311 mGy/MBq
same,"Absorbed Dose, Left colon",Left colon,0.00141 mGy/MBq
same,"Absorbed Dose, Liver",Liver,0.0185 mGy/MBq
same,"Absorbed Dose, Lungs",Lungs,0.00333 mGy/MBq
same,"Absorbed Dose, Pancreas",Pancreas,0.000976 mGy/MBq
same,"Absorbed Dose, Prostate",Prostate,0.000284 mGy/MBq
same,"Absorbed Dose, Rectum",Rectum,0.000761 mGy/MBq
same,"Absorbed Dose, Red Marrow",Red Marrow,0.000343 mGy/MBq
same,"Absorbed Dose, Remainder of the Body",Remainder of the Body,0.000952 mGy/MBq
same,"Absorbed Dose, Right colon",Right colon,0.00095 mGy/MBq
same,"Absorbed Dose, Salivary Glands",Salivary Glands,0.000254 mGy/MBq
same,"Absorbed Dose, Skeleton",Skeleton,0.000444 mGy/MBq
same,"Absorbed Dose, Small Intestine",Small Intestine,0.00131 mGy/MBq
same,"Absorbed Dose, Spleen",Spleen,0.00859 mGy/MBq
same,"Absorbed Dose, Stomach Wall",Stomach Wall,0.000464 mGy/MBq
same,"Absorbed Dose, Testes",Testes,0.00245 mGy/MBq
same,"Absorbed Dose, Thymus",Thymus,0.000336 mGy/MBq
same,"Absorbed Dose, Thyroid",Thyroid,0.00029 mGy/MBq
same,"Absorbed Dose, Urin Blad",Urin Blad,0.000269 mGy/MBq
